# Assay results as given in patent US9458145B2, “Benzimidazole derivatives as bromodomain inhibitors” (Gilead Sciences, Inc., priority 2013, dated 2016).
# Read-outs that look alike come from different tables or passages of the source.
# Tests used:
# [1] = target: BRD4-2 (Homo sapiens (Human), UniProt O60885); test: BRD4-2 Ligand KI assay (TR-FRET, Cy5 labeled ligand displacement); format: binding
# Procedure: (§1) BRD4-1 Ligand KI and BRD4-2 Ligand KI Assays
# (§2) Binding of the two tandem bromodomains, BRD4-I and BRD4-2, to a Cy5 labeled probe/ligand (Compound 1020-501) were measured using a homogeneous time resolved fluorescence resonance energy transfer (TR-FRET) assay.
# (§3) The labeled ligand specifically binds BRD4-1 and BRD4-2 and can be displaced by a small molecule inhibitor that shares a similar or overlapping binding site. BRD4-I and BRD4-2 were expressed and purified from Escherichia coli as N-terminal His6, tagged proteins. A Eu-cryptate labeled anti-His antibody (Perkin Elmer) was used to specifically bind BRD4. […] Assays were performed in 50 mM Hepes (pH 7.5), 150 mM NaCl, 0.1 mg/ml BSA, 0.01% (v/v) Brij, 0.5% (v/v) DMSO and 10 nM labeled ligand at the following concentrations for each BRD4 isoform: 2 nM BRD4-1 and 0.5 nM BRD4-2. After an assay reaction time of 60 minutes at 25° C., binding was measured with 2 nM Eu-cryptate labeled anti-His antibody. TR-FRET signal was detected on an Envision plate reader (Ex: 320 nm; Em: 615/665 nm; 100 μs delay and 200 μs read window). […] All IC50 values represent geometric mean values of a minimum of four determinations. The IC50 values were converted to Ki values (dissociation constant for BRD4-inhibitor complex) using the Cheng and Prusoff equation for a competitive inhibitor mode of action. These assays generally produced results within 3-fold of the reported mean.
# [2] = target: BRD4-1 (Homo sapiens (Human), UniProt O60885); test: BRD4-1 Ligand KI assay (TR-FRET, Cy5 labeled ligand displacement); format: binding
# Procedure: as §1, §2, §3
# [3] = 0.5 nM BRD4-2, 10 nM labeled ligand, IC50 converted to Ki by Cheng and Prusoff
# [4] = 2 nM BRD4-1, 10 nM labeled ligand, IC50 converted to Ki by Cheng and Prusoff
Compound,IC50 [1],IC50 [2],"IC50 [1, 3]","IC50 [2, 4]"
"Cc1noc(C)c1-c1cc(C(O)(c2ccccn2)c2ncccn2)c2nc(C3CC3)[nH]c2c1 (racemic) [Compound 1020-239, (R) and (S)-(2-cyclopropyl-6-(3,5-dimethylisoxazol-4-yl)-1H-benzo[d]imidazol-4-yl)(pyridin-2-yl)(pyrimidin-2-yl)methanol]",6 nM,5.9 nM,–,–
"Cc1noc(C)c1-c1cc(C(O)(c2cccnn2)C2CCCO2)c2nc(C3CC3)[nH]c2c1 (single isomer, unassigned) [Compound 1020-289, (2-cyclopropyl-6-(3,5-dimethylisoxazol-4-yl)-1H-benzo[d]imidazol-4-yl)(pyridazin-3-yl)(tetrahydrofuran-2-yl)methanol]",–,–,2 nM,2 nM
"Cc1noc(C)c1-c1cc(C(O)(c2cccnn2)C2CCC(C)(C)O2)c2nc(C3CC3)[nH]c2c1 (single isomer, unassigned) [Compound 1020-298, (2-cyclopropyl-6-(3,5-dimethylisoxazol-4-yl)-1H-benzo[d]imidazol-4-yl)(5,5-dimethyltetrahydrofuran-2-yl)(pyridazin-3-yl)methanol]",–,–,3.6 nM,5.4 nM
